Test results taken from ChEMBL document CHEMBL3784920, “Synthesis and Pharmacological Evaluation of Novel Adenine-Hydrogen Sulfide Slow Release Hybrids Designed as Multitarget Cardioprotective Agents” (J Med Chem, 2016).
The source made the active and inactive calls. No cut-off for these calls is given here.

Tests used:
[1] = Induction of H2S release in potassium phosphate buffer at pH 7.4 after 15 mins by methylene-blue assay; assay type: physicochemical; conditions: pH 7.4, 0.25 h
Oryctolagus cuniculus [2] = assay: (§1) Cardioprotective activity in New Zealand white rabbit myocardial ischemia/reperfusion injury model assessed as reduction in infarct size at 1.79 umol/kg, administered as single bolus dose at 20th min of sustained ischemia by TTC staining (reference value: 47.9 +/- 0.7 %); assay type: functional, Myocardium; design: scale not given: the % may be the effect or the level left
Oryctolagus cuniculus [3] = assay: Toxicity in New Zealand white rabbit myocardial ischemia/reperfusion injury model assessed as heart rate at 1.79 umol/kg, administered as single bolus dose at 20 mins of sustained ischemia (reference value: 276 +/- 9 bpm); assay type: organism-based; conditions: in vivo
Oryctolagus cuniculus [4] = assay: Toxicity in New Zealand white rabbit myocardial ischemia/reperfusion injury model assessed as mean blood pressure at 1.79 umol/kg, administered as single bolus dose at 20 mins of sustained ischemia in presence of non selective adenosine receptor inhibitor SPT (reference value: 64 +/- 5 mmHg); assay type: organism-based; conditions: in vivo, iv
Oryctolagus cuniculus [5] = assay: Toxicity in New Zealand white rabbit assessed as baseline mean blood pressure at 1.79 umol/kg, administered as single bolus dose (reference value: 74 +/- 5 mmHg); assay type: organism-based; conditions: in vivo
[6] = Induction of H2S release in ammonium carbonate buffer at 100 uM at pH 7.4 by mass spectrometry; assay type: physicochemical; conditions: pH 7.4, 100 µM
Oryctolagus cuniculus [7] = assay: Toxicity in New Zealand white rabbit assessed as baseline heart rate at 1.79 umol/kg, administered as single bolus dose in presence of non selective adenosine receptor inhibitor SPT (reference value: 269 +/- 10 bpm); assay type: organism-based; conditions: in vivo
Oryctolagus cuniculus [8] = assay: Toxicity in New Zealand white rabbit assessed as baseline heart rate at 1.79 umol/kg, administered as single bolus dose (reference value: 269 +/- 10 bpm); assay type: organism-based; conditions: in vivo
Oryctolagus cuniculus [9] = assay: Toxicity in New Zealand white rabbit assessed as heart weight at 1.79 umol/kg, administered as single bolus dose in presence of non selective adenosine receptor inhibitor SPT (reference value: 7.2 +/- 0.3 g); assay type: organism-based; conditions: in vivo
[10] = Induction of H2S release in potassium phosphate buffer at 100 uM at pH 7.4 by Amperometric method in presence of glutathione; assay type: physicochemical; conditions: pH 7.4, 100 µM
Oryctolagus cuniculus [11] = assay: Toxicity in New Zealand white rabbit assessed as baseline mean blood pressure at 1.79 umol/kg, administered as single bolus dose in presence of SPT (reference value: 74 +/- 5 mmHg); assay type: organism-based; conditions: in vivo
Oryctolagus cuniculus [12] = assay: Increase in VASP phosphorylation at Ser239 in tissue from ischemic area of myocardium in New Zealand white rabbit myocardial ischemia/reperfusion injury model at 1.79 umol/kg administered as single bolus dose at 10th min of reperfusion by Western blot analysis; assay type: functional, organism-based
Oryctolagus cuniculus [13] = assay: Toxicity in New Zealand white rabbit myocardial ischemia/reperfusion injury model assessed as heart rate at 1.79 umol/kg, administered as single bolus dose at 180 mins of reperfusion in presence of non selective adenosine receptor inhibitor SPT (reference value: 254 +/- 11 bpm); assay type: organism-based; conditions: in vivo, 3 h
Oryctolagus cuniculus [14] = assay: Toxicity in New Zealand white rabbit myocardial ischemia/reperfusion injury model assessed as mean blood pressure at 1.79 umol/kg, administered as single bolus dose at 180 mins of reperfusion in presence of SPT (reference value: 60 +/- 4 mmHg); assay type: organism-based; conditions: in vivo, 3 h
[15] = Induction of H2S release in ammonium carbonate buffer at 100 uM at pH 7.4 by mass spectrometry in presence of glutathione; assay type: physicochemical; conditions: pH 7.4, 100 µM
Oryctolagus cuniculus [16] = assay: Toxicity in New Zealand white rabbit assessed as heart weight at 1.79 umol/kg, administered as single bolus dose (reference value: 7.2 +/- 0.3 g); assay type: organism-based; conditions: in vivo
[17] = Induction of H2S release in potassium phosphate buffer at 20 uM at pH 7.4 by Amperometric method; assay type: physicochemical; conditions: pH 7.4, 20 µM
Oryctolagus cuniculus [18] = assay: as §1, with “20 mins before” for “20th min of”, “staining in presence of non selective adenosine receptor inhibitor SPT” for “staining”; assay type: functional, Myocardium; design: scale not given: the % may be the effect or the level left
RLF-6 [19] = assay: Induction of H2S release in RLF-6 cells assessed as cGMP accumulation at 250 uM after 5 mins by enzyme immuno assay; assay type: functional, cell-based; conditions: Rattus norvegicus
Oryctolagus cuniculus [20] = assay: Toxicity in New Zealand white rabbit myocardial ischemia/reperfusion injury model assessed as heart rate at 1.79 umol/kg, administered as single bolus dose at 180 mins of reperfusion (reference value: 254 +/- 11 bpm); assay type: organism-based; conditions: in vivo, 3 h
Oryctolagus cuniculus [21] = assay: Increase in PLN phosphorylation at Ser16/Thr17 in tissue from ischemic area of myocardium in New Zealand white rabbit myocardial ischemia/reperfusion injury model at 1.79 umol/kg administered as single bolus dose at 10th min of reperfusion by Western blot analysis relative to control; assay type: functional, organism-based
[22] = Induction of H2S release in potassium phosphate buffer at 100 uM at pH 7.4 by Amperometric method; assay type: physicochemical; conditions: pH 7.4, 100 µM
Oryctolagus cuniculus [23] = assay: Toxicity in New Zealand white rabbit myocardial ischemia/reperfusion injury model assessed as mean blood pressure at 1.79 umol/kg, administered as single bolus dose at 180 mins of reperfusion (reference value: 60 +/- 4 mmHg); assay type: organism-based; conditions: in vivo, iv, 3 h
Oryctolagus cuniculus [24] = assay: Toxicity in New Zealand white rabbit myocardial ischemia/reperfusion injury model assessed as mean blood pressure at 1.79 umol/kg, administered as single bolus dose at 20 mins of sustained ischemia (reference value: 64 +/- 5 mmHg); assay type: organism-based; conditions: in vivo
Oryctolagus cuniculus [25] = assay: Toxicity in New Zealand white rabbit myocardial ischemia/reperfusion injury model assessed as heart rate at 1.79 umol/kg, administered as single bolus dose at 20 mins of sustained ischemia in presence of non selective adenosine receptor inhibitor SPT (reference value: 276 +/- 9 bpm); assay type: organism-based; conditions: in vivo
RLF-6 [26] = assay: Induction of H2S release in RLF-6 cells assessed as cGMP accumulation after 5 mins by enzyme immuno assay; assay type: functional, cell-based; conditions: Rattus norvegicus

Row | Compound | Activity [1] | Activity (Oryctolagus cuniculus [2]) [%] | Activity (Oryctolagus cuniculus [3]) [bpm] | Activity (Oryctolagus cuniculus [5]) [mmHg] | Activity (Oryctolagus cuniculus [8]) [bpm] | Activity (Oryctolagus cuniculus [16]) [g] | Activity (Oryctolagus cuniculus [20]) [bpm] | Activity (Oryctolagus cuniculus [23]) [mmHg] | Activity (Oryctolagus cuniculus [24]) [mmHg] | also measured
1 | Nc1ncnc2c1ncn2[C@@H]1O[C@H](COc2ccc(-c3cc(=S)ss3)cc2)[C@@H](O)[C@H]1O | Dose-dependent effect | – | – | – | – | – | – | – | – | –
2 | NC(=S)c1ccc(OC[C@H]2O[C@@H](n3cnc4c(N)ncnc43)[C@H](O)[C@@H]2O)cc1 | Dose-dependent effect | 20.1 | 256 | 82 | 258 | 7.6 | 256 | 76 | 83 | Activity (Oryctolagus cuniculus [4]): 71 mmHg; Activity [6]: 0.8 µM/min; Activity (Oryctolagus cuniculus [7]): 262 bpm; Activity (Oryctolagus cuniculus [9]): 7.2 g; Activity [10]: Not Active; Activity (Oryctolagus cuniculus [11]): 86 mmHg; Activity (Oryctolagus cuniculus [12]): Active; Activity (Oryctolagus cuniculus [13]): 260 bpm; Activity (Oryctolagus cuniculus [14]): 77 mmHg; Activity [15]: Not Active; Activity [17]: Not Active; Activity (Oryctolagus cuniculus [18]): 18.3%; Activity (RLF-6 [19]): Active; Activity (Oryctolagus cuniculus [21]): Active; Activity [22]: Active; Activity (Oryctolagus cuniculus [25]): 260 bpm
3 | [Na+].[SH-] [SODIUM HYDROSULFIDE] | – | – | 268 | 81 | 273 | 7.1 | 262 | 68 | 76 | –
4 | Nc1ncnc2c1ncn2CCCCO | – | 32.4 | 266 | 95 | 275 | 7.3 | 270 | 90 | 88 | Activity (RLF-6 [26]): inactive
5 | Nc1ncnc2c1ncn2CCCCOc1ccc(-c2cc(=S)ss2)cc1 | Dose-dependent effect | – | – | – | – | – | – | – | – | –
